Assay results from patent EP0877740B1, “THIOL DERIVATIVES WITH METALLOPEPTIDASE INHIBITORY ACTIVITY” (ZAMBON GROUP S.p.A., priority 1995, dated 1997).
Like-named read-outs stand apart in the source and are kept apart here.

Biological target: T1, ACE (Rattus norvegicus, UniProt P47820)
T1 construct: After the removal of the lungs from SHR, the lung tissue was homogenized; from tissue; host or cells: lung homogenate of spontaneously hypertensive rats (SHR)
T1 sequence (P47820 36-1313): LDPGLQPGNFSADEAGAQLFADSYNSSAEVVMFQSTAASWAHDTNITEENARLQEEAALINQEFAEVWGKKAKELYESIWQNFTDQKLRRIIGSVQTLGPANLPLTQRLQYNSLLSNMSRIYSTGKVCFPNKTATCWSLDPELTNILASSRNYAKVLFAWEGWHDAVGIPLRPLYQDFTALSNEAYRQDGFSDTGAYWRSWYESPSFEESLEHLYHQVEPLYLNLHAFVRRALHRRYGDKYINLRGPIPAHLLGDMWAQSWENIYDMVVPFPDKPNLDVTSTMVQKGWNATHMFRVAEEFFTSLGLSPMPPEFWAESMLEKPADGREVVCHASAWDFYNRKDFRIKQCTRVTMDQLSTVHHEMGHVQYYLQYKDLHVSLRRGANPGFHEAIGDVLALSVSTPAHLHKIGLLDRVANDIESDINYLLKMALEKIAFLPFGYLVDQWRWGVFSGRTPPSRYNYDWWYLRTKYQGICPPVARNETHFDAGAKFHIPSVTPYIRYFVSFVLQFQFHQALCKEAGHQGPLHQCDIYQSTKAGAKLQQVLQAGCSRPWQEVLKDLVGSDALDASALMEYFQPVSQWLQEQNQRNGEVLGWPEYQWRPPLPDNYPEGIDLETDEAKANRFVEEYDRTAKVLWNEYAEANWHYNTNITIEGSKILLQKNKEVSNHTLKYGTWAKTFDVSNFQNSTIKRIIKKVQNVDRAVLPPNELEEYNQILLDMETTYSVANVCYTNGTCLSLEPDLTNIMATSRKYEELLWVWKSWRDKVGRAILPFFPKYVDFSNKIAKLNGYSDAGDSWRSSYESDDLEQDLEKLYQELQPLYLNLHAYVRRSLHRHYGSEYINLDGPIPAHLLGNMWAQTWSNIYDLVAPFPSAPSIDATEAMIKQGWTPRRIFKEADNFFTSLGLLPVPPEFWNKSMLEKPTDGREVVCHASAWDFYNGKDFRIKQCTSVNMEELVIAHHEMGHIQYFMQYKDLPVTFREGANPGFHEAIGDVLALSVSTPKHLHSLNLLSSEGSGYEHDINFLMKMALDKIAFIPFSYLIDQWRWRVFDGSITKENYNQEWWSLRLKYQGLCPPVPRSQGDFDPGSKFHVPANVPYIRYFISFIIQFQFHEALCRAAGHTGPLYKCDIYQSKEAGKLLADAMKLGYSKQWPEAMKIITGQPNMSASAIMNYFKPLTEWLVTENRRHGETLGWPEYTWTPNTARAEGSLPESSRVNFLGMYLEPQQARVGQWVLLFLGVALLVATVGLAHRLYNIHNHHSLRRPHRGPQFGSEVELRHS
Experiment: Ex vivo ACE-inhibitory activity in lung homogenates of treated SHR (radiometric, [3H]Hyp-Gly-Gly)
Set-up: species or system spontaneously hypertensive rats (SHR)
Settings: SHR lungs; for inhibition at 30 µmol/kg: oral 30 µmoles/kg
Experimental: The ex-vivo ACE/NEP-inhibitory activity, in particular, was determined by evaluating the enzymatic activity in tissue homogenates (lung and kidney for ACE and NEP activity, respectively) from spontaneously hypertensive rats (SHR) treated with the tested compounds by intravenous or oral route.
The ex vivo ACE-inhibitory activity was evaluated by using a radiometric assay method, as reported in the literature by J. W. Ryan et al. in Biochem. J. (1977), 167, 501-504.
The inhibitory activity of the compounds of formula I was evaluated in lungs of spontaneously hypertensive rats (SHR), 5 minutes after i.v. injection (0.6 and 21 µmoles/kg) and 30 minutes, 60 minutes and 4 hours after oral administration (30 µmoles/kg) of the tested compounds.
After the removal of the lungs from SHR, the lung tissue was homogenized and incubated for 2 hours at 37°C in the presence of [^3H]Hyp-Gly-Gly, as a substrate.
The reaction was stopped by adding hydrochloric acid.
The released radiolabelled hyppuric acid was extracted with ethyl acetate and counted by liquid scintillation spectrometry, according to conventional methods.
The ACE-inhibitory activity of the tested compounds was expressed as percentage of ACE-inhibition in SHR lungs.

inhibition at 30 µmol/kg (30 minutes after administration, read-out: ACE-inhibition (lungs) 30 minutes): 60% | inhibition at 30 µmol/kg (60 minutes after administration, read-out: ACE-inhibition (lungs) 60 minutes): 36% | inhibition at 30 µmol/kg (4 hours after administration, read-out: ACE-inhibition (lungs) 4 hours): 45% | inhibition at 0.6 µmol/kg (iv, i.v. 0.6 µmoles/kg, 5 minutes after injection): 15% | inhibition at 21 µmol/kg (iv, i.v. 21 µmoles/kg, 5 minutes after injection): 72%
SMILES: O=C(N[C@@H](Cc1ccc(-c2nccs2)cc1)C(=O)O)[C@@H](CS)Cc1ccccc1 [Compound 16, N-[(2S)-3-mercapto-2-phenylmethylpropionyl]-4-(2-thiazolyl)-L-phenylalanine]
